Reference: patent US4385062A, “1-[(-2-Mercaptocycloalkyl)carbonyl]-L-proline derivatives, the process for their manufacture, the intermediates for their synthesis and their use as anti-hypertensive agents” (Gruppo Lepetit S.p.A., priority 1980, dated 1983)

How the values were obtained:
[1] = molecular target: T1, angiotensin converting enzyme (Rattus norvegicus, UniProt P47820); assay: in vitro radioimmunoassay of angiotensin-II generation in rat plasma (converting enzyme inhibition); format: biochemical; settings: 37° C., 30 minutes, angiotensin-II antibody trapping, read-out: IC50 (concentration at which a 50% inhibition of formation of angiotensin-II with respect to the control occurs) (converted)
T1 construct: rat plasma containing angiotensinogen, renin and converting enzyme in physiological amounts; from tissue; host or cells: rat plasma
T1 sequence (P47820 36-1238 limits assumed): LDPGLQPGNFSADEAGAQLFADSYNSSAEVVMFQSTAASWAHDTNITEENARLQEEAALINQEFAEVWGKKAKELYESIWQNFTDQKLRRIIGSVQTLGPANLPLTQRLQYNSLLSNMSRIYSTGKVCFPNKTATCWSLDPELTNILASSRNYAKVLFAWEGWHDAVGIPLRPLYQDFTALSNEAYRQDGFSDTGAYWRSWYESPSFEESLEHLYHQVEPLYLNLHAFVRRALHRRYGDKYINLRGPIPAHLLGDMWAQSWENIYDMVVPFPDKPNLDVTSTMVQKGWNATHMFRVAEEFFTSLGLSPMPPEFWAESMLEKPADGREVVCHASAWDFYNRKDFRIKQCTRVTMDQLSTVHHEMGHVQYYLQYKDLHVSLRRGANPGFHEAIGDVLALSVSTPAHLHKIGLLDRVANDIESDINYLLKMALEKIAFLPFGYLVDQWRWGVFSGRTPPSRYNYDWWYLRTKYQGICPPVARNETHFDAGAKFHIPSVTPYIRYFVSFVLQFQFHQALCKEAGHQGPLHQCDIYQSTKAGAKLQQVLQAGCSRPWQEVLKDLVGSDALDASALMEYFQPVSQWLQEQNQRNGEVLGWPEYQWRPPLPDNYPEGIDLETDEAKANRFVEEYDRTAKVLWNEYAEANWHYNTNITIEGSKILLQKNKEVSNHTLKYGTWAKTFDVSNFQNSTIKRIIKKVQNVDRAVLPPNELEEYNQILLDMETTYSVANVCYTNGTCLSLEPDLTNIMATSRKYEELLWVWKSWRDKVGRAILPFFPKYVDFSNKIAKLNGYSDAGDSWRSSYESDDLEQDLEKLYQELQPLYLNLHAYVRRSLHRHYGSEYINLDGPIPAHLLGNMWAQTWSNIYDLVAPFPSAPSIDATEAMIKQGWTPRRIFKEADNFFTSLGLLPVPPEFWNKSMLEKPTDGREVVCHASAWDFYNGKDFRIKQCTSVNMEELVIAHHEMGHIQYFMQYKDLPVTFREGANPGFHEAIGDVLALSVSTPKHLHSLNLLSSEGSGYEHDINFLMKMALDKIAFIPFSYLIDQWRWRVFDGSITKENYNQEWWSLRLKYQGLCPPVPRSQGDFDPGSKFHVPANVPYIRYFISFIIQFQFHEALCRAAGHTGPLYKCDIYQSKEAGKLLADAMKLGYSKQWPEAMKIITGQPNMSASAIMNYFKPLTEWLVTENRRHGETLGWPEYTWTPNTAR
Experimental: The in vitro activity was determined by a radioimmuno-assay carried out using the methodology illustrated by K. Poulsen in J. Lab. […] More particularly, the in vitro activity was quantitatively evaluated by following the procedure described below:
50 μl of rat plasma containing angiotensinogen, renin and converting enzyme in physiological amounts, but deprived of endogenous angiotensin-I and angiotensin-II, and 10 μl of angiotensin-II antibody in dilution (1:120) were incubated in a tube at 37° C. for 30 minutes.
During this enzymatic incubation in the absence of converting enzyme inhibitors, angiotensin-II which forms is then transformed into angiotensin-II by the action of converting enzyme and the angiotensin-II antibody which is present in the incubate, then captures and traps it, thus preserving angiotensin-II from the degrading action of plasmatic angiotensinases. Incubation was terminated by placing the tube at 0° C. and the amount of angiotensin-II formed and captured by the antibody was measured by radioimmunoassay (see K. Poulsen and J. Jorgensen J. Clin. Endocrinol. Metab. 39, 816-825 (1974). […]
As said above, the amount of captured angiotensin-II, was determined by a radioimmunological assay. […] After centrifugation at 3000×g for 30 minutes the supernatant which contains the antibody-bound angiotensin-II, was decanted in counting tubes and each sample was then counted.
For calculation of generated angiotensin-II from the amount of antibody-bound labeled angiotensin-II, an angiotensin-II standard curve was constructed using 50 μg of standard angiotensin-II (containing zero to 7.5 pg of angiotensin-II) and 10 μl of angiotensin-II antibody in dilution (1:120). […] By plotting the amounts of antibody-bound labeled angiotensin-II versus the known amounts of angiotensin-II initially present, a standard curve can be constructed, which allow a direct correlation between the amount of antibody-bound labeled angiotensin-II determined in each test and the amount of generated angiotensin-II.

[2] = molecular target: T2, angiotensin converting enzyme (Rattus norvegicus, UniProt P47820); assay: inhibition of the pressure increase induced by angiotensin-I in anesthetized normotensive rats; format: in vivo; settings: normotensive rats anesthetized with nembuthal, angiotensin-I 0.1 μg/Kg, generally 15 minutes after test compound
T2 construct: confirmed also in vivo by means of an experiment performed on normotensive rats; from tissue; host or cells: anesthetized normotensive rats (whole animal)
T2 sequence (P47820 36-1313): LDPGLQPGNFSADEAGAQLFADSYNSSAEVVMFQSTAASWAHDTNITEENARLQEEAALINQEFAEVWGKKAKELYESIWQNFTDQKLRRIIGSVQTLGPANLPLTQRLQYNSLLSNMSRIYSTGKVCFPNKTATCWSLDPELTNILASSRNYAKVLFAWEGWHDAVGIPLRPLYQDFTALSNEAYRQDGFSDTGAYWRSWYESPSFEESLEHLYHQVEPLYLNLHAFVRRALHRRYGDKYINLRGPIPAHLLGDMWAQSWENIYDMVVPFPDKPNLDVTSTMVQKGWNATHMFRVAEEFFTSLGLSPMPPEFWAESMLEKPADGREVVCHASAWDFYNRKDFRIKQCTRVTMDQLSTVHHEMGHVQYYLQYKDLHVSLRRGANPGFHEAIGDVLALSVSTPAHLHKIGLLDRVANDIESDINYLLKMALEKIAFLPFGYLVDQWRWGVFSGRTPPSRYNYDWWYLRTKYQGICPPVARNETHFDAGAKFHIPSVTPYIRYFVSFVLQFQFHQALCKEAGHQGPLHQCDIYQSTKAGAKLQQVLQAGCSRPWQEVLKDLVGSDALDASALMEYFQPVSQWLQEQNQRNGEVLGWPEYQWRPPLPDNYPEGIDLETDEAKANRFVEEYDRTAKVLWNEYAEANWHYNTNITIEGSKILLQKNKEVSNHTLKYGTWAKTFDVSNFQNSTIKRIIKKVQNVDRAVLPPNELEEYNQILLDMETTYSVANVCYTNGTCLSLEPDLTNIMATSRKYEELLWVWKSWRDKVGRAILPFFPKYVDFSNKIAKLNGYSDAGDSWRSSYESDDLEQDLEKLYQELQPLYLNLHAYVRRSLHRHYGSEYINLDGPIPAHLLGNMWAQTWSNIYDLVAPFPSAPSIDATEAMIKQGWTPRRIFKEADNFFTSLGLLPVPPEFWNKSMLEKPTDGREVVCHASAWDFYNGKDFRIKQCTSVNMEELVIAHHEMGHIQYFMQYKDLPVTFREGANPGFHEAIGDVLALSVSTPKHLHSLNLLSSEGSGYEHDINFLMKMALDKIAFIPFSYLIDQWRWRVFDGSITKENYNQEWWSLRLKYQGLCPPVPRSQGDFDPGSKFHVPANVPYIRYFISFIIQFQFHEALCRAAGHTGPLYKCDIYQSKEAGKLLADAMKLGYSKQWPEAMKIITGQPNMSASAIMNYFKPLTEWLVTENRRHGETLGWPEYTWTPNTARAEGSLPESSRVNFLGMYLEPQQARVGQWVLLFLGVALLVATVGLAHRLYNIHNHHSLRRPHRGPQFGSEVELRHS
Experimental: The experiment was carried out simultaneously with the above one and under the same conditions.
The basal pressure value for each rat was recorded, then doses of 0.1 μg/Kg of body weight of angiotensin-I were injected through the jugular catheter. […] From these values and the basal ones the pressure increase induced by angiotensin-I in each rat was calculated.
The percentages of inhibition of the pressure increase induced by angiotensin-I by different doses of test compounds were easily calculated and for each dose a single value, averaged on the three animals of the group was considered. By plotting the concentrations of test compound on a logarithmic scale versus the percent inhibitory effects, a linear correlation was established which allowed the calculation of the ED50, i.e. the dose of test compound which inhibits by 50% the pressure increase induced by angiotensin-I.

Compound | IC50 [1] | ED50 ([2]; rat, iv, 0.25 h, read-out: ED50 (dose which inhibits by 50% the pressure increase induced by angiotensin-I)) | ED50 (dose which inhibits by 50% the pressure increase induced by angiotensin-I) ([2]; intravenous, 15 min)
O=C(SC1CCCC1C(=O)N1CCC[C@H]1C(=O)O)c1ccccc1 (single isomer, unassigned) [Example 5B, 1-[(2-benzoylthiocyclopentyl)carbonyl]-L-proline] | 662 nM |  | 
O=C(O)[C@@H]1CCCN1C(=O)C1CCCC1S (single isomer, unassigned) [Example 6A, 1-[(2-mercaptocyclopentyl)carbonyl]-L-proline] | 863 nM |  | 
O=C(O)[C@@H]1CCCN1C(=O)C1CCCC1S (stereo partly drawn) [Example 2, 1-[(2-mercaptocyclopentyl)carbonyl]-L-proline] | 2340 nM | 2.3 mg/kg | 
O=C(O)[C@@H]1CCCN1C(=O)C1CCCC1S (stereo partly drawn) [Example 6B, 1-[(2-mercaptocyclopentyl)carbonyl]-L-proline] |  |  | 1.8 mg/kg
